Source: patent US10857127B2, “Vaginal delivery systems containing selective estrogen receptor modulator (SERM) and uses thereof” (Azure Biotech, Inc., priority 2016, dated 2020)
Several values for one entry are separate records, joined by “and”; a condition that tells them apart may be missing. Equal entries are not always repeated. Structures can show the parent of a compound that is named as a salt.

Key:
[1] = Dissolution studies of Lasofoxifene in organic solvents and surfactants; type: physicochemical; conditions: for Dissolution of Lasofoxifene in various organic solvents and surfactants, 2 mg/ml: Lasofoxifene 2 mg/ml in the labelled solvent/surfactant; for Dissolution of Lasofoxifene in various organic solvents and surfactants, 2 mg/ml / Dissolution of Lasofoxifene in various organic solvents and surfactants, 3 mg/ml / Dissolution of Lasofoxifene in various organic solvents and surfactants, 6 mg/ml: visual examination; for Dissolution of Lasofoxifene in various organic solvents and surfactants, 3 mg/ml: Lasofoxifene 3 mg/ml in the labelled solvent/surfactant; for Dissolution of Lasofoxifene in various organic solvents and surfactants, 6 mg/ml: Lasofoxifene 6 mg/ml in the labelled solvent/surfactant
Description: The solubility of Lasofoxifene was investigated by screening various organic solvents and surfactants in increasing concentrations. The term “formulation” may refer to a pharmaceutical composition comprising […] pharmaceutically acceptable excipients.
First, 1 mg of Lasofoxifene was weighed into Eppendorf vessels and 500 μl of organic solvents and surfactants as listed in Table 20 were added. In cases of insufficient dissolution of the API, samples were treated with ultrasound for 30 min and, if necessary, heated to 50° C. while shaking (300 rpm). Afterwards, samples were examined visually regarding drug dissolution. In case of entire dissolution, the experiment was repeated with increasing drug concentrations until maximum dissolution was achieved. In addition, further organic solvents and surfactants were tested.

[2] = as above; type: physicochemical; conditions: Lasofoxifene 1 mg/ml in the labelled solvent/surfactant; visual examination
[3] = tested on: vaginal epithelium; experiment: Ovariectomized rat dosing frequency study: mucification of vaginal epithelium (PAS staining, 0-4 scale); type: in vivo; conditions: individual animals
From the text: (§1) A total of 96 young, about 6-8 weeks old, female Sprague Dawley rats were used in this pilot study. The rats were randomized by body weight into six (6) per group and sixteen (16) groups. Ninety (N=90) of the animals were ovariectomized (OVX), and six (N=6) of the animals have a sham OVX surgery. One group of six (6) animals were terminated along with the sham-operated group at Day-14 post-OVX surgery. Three groups of eighteen (18) animals were respectively terminated along with the vehicle group at Day-14, Day-17 or Day-21 post-OVX surgery. The dosing regimens, starting on Day 14 post OVX, by inserting a capsule containing the desired Lasofoxifene formulations (e.g., Test Articles F-1-L, F-1-H, F-2-L, F-2-H) into vaginal tract under brief general anesthesia.
(§2) Rats were assigned to treatment groups by randomization in BioBook system (IDBS) based on the body weights. Grouping according to the below table 1. Each rat was dosed with ready to use solution, […] into vaginal tract with a syringe.
(§3) Annotation: Groups 1 (N=6): Day-0 vehicle; dose once at 100 μL on Day-0 at 14-day post OVX, and terminate at Day-14 post OVX. Groups 2 (N=6): Day-3 vehicle; dose once at 100 μL on Day-0 at 14-day post OVX, and terminate at Day-17 post OVX. Groups 3 (N=6): Day-7 vehicle; dose once at 100 μL on Day-0 at 14-day post OVX, and terminate at Day-21 post OVX. Groups 4 (N=6): Day-0 sham: terminate at Day-14 post sham-operation. Groups 5 (N=6): F-1-L; dose once at 0.3 μg/kg (100 μL) on Day-0 at 14-day post OVX, and terminated at Day-3 after dosing. Groups 6 (N=6): F-1-H; dose once at 3.0 μg/kg (100 μL) on Day-0 at 14-day post OVX, and terminated at Day-3 after dosing. Groups 7 (N=6): F-2-L; dose once at 0.3 μg/kg (100 μL) on Day-0 at 14-day post OVX, and terminated at Day-3 after dosing. Groups 8 (N=6): F-2-H; dose once at 3.0 μg/kg (100 μL) on Day-0 at 14-day post OVX, and terminated at Day-3 after dosing. Groups 9 (N=6): F-1-L; dose once at 0.3 μg/kg (100 μL) on Day-0 at 14-day post OVX, and terminated at Day-7 after dosing. Groups 10 (N=6): F-1-H; dose once at 3.0 μg/kg (100 μL) on Day-0 at 14-day post OVX, and terminated at Day-7 after dosing. Groups 11 (N=6): F-2-L; dose once at 0.3 μg/kg (100 μL) on Day-0 at 14-day post OVX, and terminated at Day-7 after dosing. Groups 12 (N=6): F-2-H; dose once at 3.0 μg/kg (100 μL) on Day-0 at 14-day post OVX, and terminated at Day-7 after dosing. Groups 13 (N=6): F-1-L; dose twice at respectively 0.3 μg/kg (100 μL) on Day-0 and Day-4 at 14-day and 18-day post OVX, and terminated at Day-7 after dosing. Groups 14 (N=6): F-1-H; dose twice at respectively 3.0 μg/kg (100 μL) on Day-0 and Day-4 at 14-day and 18-day post OVX, and terminated at Day-7 after dosing. Groups 15 (N=6): F-2-L; dose twice at respectively 0.3 μg/kg (100 μL) on Day-0 and Day-4 at 14-day and 18-day post OVX, and terminated at Day-7 after dosing. Groups 16 (N=6): F-2-H; dose twice at respectively 3.0 μg/kg (100 μL) on Day-0 and Day-4 at 14-day and 18-day post OVX, and terminated at Day-7 after dosing. Body Weight
(§4) All animals were humanely sacrificed by CO2 and the vaginal and uterine wet-weight were collected from each, and about 0.5 mL blood were collected for analysis of serum cholesterol level. Each uterus and vagina was weighed separately and was placed in 10% NBF for at least 48 hours before being sent to Histology Laboratory for tissue processing. The paraffin blocks of these tissues were sectioned, about 4-8 μm in thickness, and one section were stained with H & E for general microscopic evaluation, and one section were stained with PAS for assessment of mucification of the epithelium.
The PAS stained sections were used to evaluate the amount of mucification by visual approximation on a 0-4 scale, with the 4 stands for the highest amount.
Data were analyzed using GraphPad Prism software (GraphPad Software, Inc., La Jolla, Calif., USA) and are expressed as the mean±SD. […]

[4] = tested on: vaginal epithelium; experiment: Ovariectomized rat dosing frequency study: thickness of the vaginal epithelium (H & E histomorphometry); type: in vivo; design: unit not given here; conditions: individual animals
From the text: as §1, §2, §3, §4
The H & E stained sections were used to measure the height of the vaginal epithelium at minimum of ten (10) sites per slide. Photomicrographs of the slides were included in the appendix or burned on a DVD disc to accompany the final report. […]

[5] = tested on: Uterine; experiment: Ovariectomized rat dosing frequency study: mucification, Uterine (0-4 scale); type: in vivo; conditions: individual animals
[6] = tested on: Uterine; experiment: Ovariectomized rat dosing frequency study: epithelium thickness, Uterine; type: in vivo; design: unit not given here; conditions: individual animals

Compound: C[S+](C)[O-] [DMSO, dimethyl sulfoxide]
- Dissolution of Lasofoxifene in various organic solvents and surfactants, 2 mg/ml [1]: dissolved
- Dissolution of Lasofoxifene in various organic solvents and surfactants, 3 mg/ml [1]: dissolved
- Dissolution of Lasofoxifene in various organic solvents and surfactants, 6 mg/ml [1]: dissolved
- Dissolution of Lasofoxifene in various organic solvents and surfactants, 1 mg/ml [2]: dissolved

Compound: CCCCCCCC/C=C\CCCCCCCC(=O)OCC [Ethyloleate]
- Dissolution of Lasofoxifene in various organic solvents and surfactants, 1 mg/ml [2]: not dissolved

Compound: OCC(O)CO [Glycerol 85%, Glycerol]
- Dissolution of Lasofoxifene in various organic solvents and surfactants, 2 mg/ml [1]: partially
- Dissolution of Lasofoxifene in various organic solvents and surfactants, 3 mg/ml [1]: not dissolved
- Dissolution of Lasofoxifene in various organic solvents and surfactants, 1 mg/ml [2]: dissolved

Compound: OCC(O)CO [Glycerol 99%, Glycerol]
- Dissolution of Lasofoxifene in various organic solvents and surfactants, 2 mg/ml [1]: partially
- Dissolution of Lasofoxifene in various organic solvents and surfactants, 3 mg/ml [1]: not dissolved
- Dissolution of Lasofoxifene in various organic solvents and surfactants, 1 mg/ml [2]: dissolved*

Compound: CO[C@H]1CO[C@H]2[C@@H]1OC[C@H]2OC [Isosorbide dimethyl ether (DMI), Isosorbide dimethyl ether]
- Dissolution of Lasofoxifene in various organic solvents and surfactants, 2 mg/ml [1]: partially
- Dissolution of Lasofoxifene in various organic solvents and surfactants, 3 mg/ml [1]: not dissolved
- Dissolution of Lasofoxifene in various organic solvents and surfactants, 1 mg/ml [2]: dissolved*

Compound: Oc1ccc2c(c1)CC[C@H](c1ccccc1)[C@@H]2c1ccc(OCCN2CCCC2)cc1 [Lasofoxifene]
- Mucification of vaginal epithelium, Vagina ([3]; group G3): 2 (4×) and 3 (2×)
- Mucification of vaginal epithelium, Vagina ([3]; group G5): 3 and 1 (3×) and 2 (2×)
- Mucification of vaginal epithelium, Vagina ([3]; group G6): 2 (2×) and 1 (4×)
- Mucification of vaginal epithelium, Vagina ([3]; group G7): 1 (2×) and 2 (4×)
- Mucification of vaginal epithelium, Vagina ([3]; group G8): 2 (2×) and 1 (3×) and 3
- Mucification of vaginal epithelium, Vagina ([3]; group G9): 3 (3×) and 1 and 2 (2×)
- Mucification of vaginal epithelium, Vagina ([3]; group G10): 3 (3×) and 2 (3×)
- Mucification of vaginal epithelium, Vagina ([3]; group G11): 3 (2×) and 4 and 1 and 2 (2×)
- Mucification of vaginal epithelium, Vagina ([3]; group G12): 3 (4×) and 2 and 4
- Mucification of vaginal epithelium, Vagina ([3]; group G13): 4 (4×) and 3 (2×)
- Mucification of vaginal epithelium, Vagina ([3]; group G14): 4 (3×) and 3 (3×)
- Mucification of vaginal epithelium, Vagina ([3]; group G15): 2 (2×) and 3 (4×)
- Mucification of vaginal epithelium, Vagina ([3]; group G16): 4 and 3 (4×) and 2
- Thickness of the vaginal epithelium, Vagina ([4]; group G3): 23 (2×) and 22 and 21 and 15 and 18
- Thickness of the vaginal epithelium, Vagina ([4]; group G5): 26 and 30 and 32 (2×) and 27 and 16
- Thickness of the vaginal epithelium, Vagina ([4]; group G6): 29 (2×) and 24 and 41 and 27 and 22
- Thickness of the vaginal epithelium, Vagina ([4]; group G7): 27 and 18 and 21 and 20 (2×) and 17
- Thickness of the vaginal epithelium, Vagina ([4]; group G8): 32 (2×) and 24 and 28 and 14 and 26
- Thickness of the vaginal epithelium, Vagina ([4]; group G9): 21 and 15 (2×) and 25 and 17 and 18
- Thickness of the vaginal epithelium, Vagina ([4]; group G10): 27 and 19 and 17 (2×) and 14 and 22
- Thickness of the vaginal epithelium, Vagina ([4]; group G11): 17 (2×) and 20 and 15 and 25 and 19
- Thickness of the vaginal epithelium, Vagina ([4]; group G12): 16 and 21 and 17 and 18 and 20 and 19
- Thickness of the vaginal epithelium, Vagina ([4]; group G13): 20 (3×) and 18 and 23 and 19
- Thickness of the vaginal epithelium, Vagina ([4]; group G14): 15 and 23 and 13 and 16 and 18 and 25
- Thickness of the vaginal epithelium, Vagina ([4]; group G15): 21 and 22 and 23 (3×) and 25
- Thickness of the vaginal epithelium, Vagina ([4]; group G16): 22 and 28 and 20 and 19 (2×) and 16
- Mucification, Uterine ([5]; group G3): 0
- Mucification, Uterine ([5]; group G5): 0
- Mucification, Uterine ([5]; group G6): 0
- Mucification, Uterine ([5]; group G7): 0
- Mucification, Uterine ([5]; group G8): 0
- Mucification, Uterine ([5]; group G9): 0
- Mucification, Uterine ([5]; group G10): 0
- Mucification, Uterine ([5]; group G11): 0
- Mucification, Uterine ([5]; group G12): 0
- Mucification, Uterine ([5]; group G13): 0
- Mucification, Uterine ([5]; group G14): 0
- Mucification, Uterine ([5]; group G15): 0
- Mucification, Uterine ([5]; group G16): 0
- Thickness, Uterine ([6]; group G3): 6 and 7 (3×) and 8 (2×)
- Thickness, Uterine ([6]; group G5): 9 (4×) and 8 (2×)
- Thickness, Uterine ([6]; group G6): 8 (3×) and 9 and 6 (2×)
- Thickness, Uterine ([6]; group G7): 8 (3×) and 7 (2×) and 9
- Thickness, Uterine ([6]; group G8): 6 and 8 (2×) and 10 (2×) and 7
- Thickness, Uterine ([6]; group G9): 7 (2×) and 9 (2×) and 6 (2×)
- Thickness, Uterine ([6]; group G10): 9 (3×) and 8 (2×) and 11
- Thickness, Uterine ([6]; group G11): 5 and 7 (4×) and 9
- Thickness, Uterine ([6]; group G12): 9 and 7 (3×) and 6 and 8
- Thickness, Uterine ([6]; group G13): 6 (2×) and 7 and 8 (2×) and 9
- Thickness, Uterine ([6]; group G14): 8 (3×) and 6 and 7 and 9
- Thickness, Uterine ([6]; group G15): 9 and 8 (5×)
- Thickness, Uterine ([6]; group G16): 6 (2×) and 7 (3×) and 8

Compound: CC(O)CO (stereo not shown) [Propylene glycol (PG), Propylene glycol]
- Dissolution of Lasofoxifene in various organic solvents and surfactants, 2 mg/ml [1]: dissolved*
- Dissolution of Lasofoxifene in various organic solvents and surfactants, 3 mg/ml [1]: partially
- Dissolution of Lasofoxifene in various organic solvents and surfactants, 6 mg/ml [1]: not dissolved
- Dissolution of Lasofoxifene in various organic solvents and surfactants, 1 mg/ml [2]: dissolved

Compound: CCOCCOCCO [Transcutol (TC), Diethylene glycol monoethyl ether]
- Dissolution of Lasofoxifene in various organic solvents and surfactants, 2 mg/ml [1]: dissolved
- Dissolution of Lasofoxifene in various organic solvents and surfactants, 3 mg/ml [1]: dissolved
- Dissolution of Lasofoxifene in various organic solvents and surfactants, 1 mg/ml [2]: dissolved

Compound: CC(=O)OCC(COC(C)=O)OC(C)=O [Triacetin (TAC), Triacetin]
- Dissolution of Lasofoxifene in various organic solvents and surfactants, 2 mg/ml [1]: not dissolved

Compound: CCCCOC(=O)CC(CC(=O)OCCCC)(OC(C)=O)C(=O)OCCCC [Tributyl acetyl citrate (TBAC), Tributyl acetyl citrate]
- Dissolution of Lasofoxifene in various organic solvents and surfactants, 1 mg/ml [2]: not dissolved

Compound: CCCCOC(=O)CC(O)(CC(=O)OCCCC)C(=O)OCCCC [Tributyl citrate (TBC), Tributyl citrate]
- Dissolution of Lasofoxifene in more lipophilic excipients ([1]; in the labelled excipient): could not be dissolved
- Dissolution of Lasofoxifene in various organic solvents and surfactants, 1 mg/ml [2]: not dissolved

Compound: CCOC(=O)CC(CC(=O)OCC)(OC(C)=O)C(=O)OCC [Triethyl acetyl citrate (TEAC), Triethyl acetyl citrate]
- Dissolution of Lasofoxifene in various organic solvents and surfactants, 1 mg/ml [2]: not dissolved

Compound: CCOC(=O)CC(O)(CC(=O)OCC)C(=O)OCC [Triethyl citrate (TEC), Triethyl citrate]
- Dissolution of Lasofoxifene in various organic solvents and surfactants, 1 mg/ml [2]: not dissolved
